Results: ChEMBL document CHEMBL5465560, “Selectivity Literature for EUbOPEN Chemogenomic Library” (2024)
pIC50: −log10 of the molar value.

Key:
[1] = system: Epidermal growth factor receptor (Homo sapiens), P00533 [G719C]; settings: at 10 µM
[2] = target: Beta-1 adrenergic receptor (Homo sapiens, UniProt P08588); assay: Selectivity interaction (Beta 1 adrenergic receptor assay, human recombinant ) EUB0000877a ADRB1
[3] = system: Angiopoietin-1 receptor (Homo sapiens), Q02763 [R849W]; assay: (§1) Selectivity interaction (LanthaScreen Eu Kinase Binding Assay) EUB0001632a TEK; settings: at 10 µM
[4] = system: Angiopoietin-1 receptor (Homo sapiens), Q02763 [Y1108F]; assay: as §1; settings: at 10 µM
[5] = target: Cyclin-dependent kinase 15 (Homo sapiens) (UniProt Q96Q40); assay: Selectivity interaction (KinomeScan (DiscoverX)) EUB0000229b CDK15; settings: at 10 µM
[6] = target: T1, Mitogen-activated protein kinase kinase kinase 2 (Homo sapiens) (UniProt Q9Y2U5); assay: Selectivity interaction (KinomeScan (DiscoverX)) EUB0001079a MAP3K2; settings: at 1 µM
T1 sequence (whole entry): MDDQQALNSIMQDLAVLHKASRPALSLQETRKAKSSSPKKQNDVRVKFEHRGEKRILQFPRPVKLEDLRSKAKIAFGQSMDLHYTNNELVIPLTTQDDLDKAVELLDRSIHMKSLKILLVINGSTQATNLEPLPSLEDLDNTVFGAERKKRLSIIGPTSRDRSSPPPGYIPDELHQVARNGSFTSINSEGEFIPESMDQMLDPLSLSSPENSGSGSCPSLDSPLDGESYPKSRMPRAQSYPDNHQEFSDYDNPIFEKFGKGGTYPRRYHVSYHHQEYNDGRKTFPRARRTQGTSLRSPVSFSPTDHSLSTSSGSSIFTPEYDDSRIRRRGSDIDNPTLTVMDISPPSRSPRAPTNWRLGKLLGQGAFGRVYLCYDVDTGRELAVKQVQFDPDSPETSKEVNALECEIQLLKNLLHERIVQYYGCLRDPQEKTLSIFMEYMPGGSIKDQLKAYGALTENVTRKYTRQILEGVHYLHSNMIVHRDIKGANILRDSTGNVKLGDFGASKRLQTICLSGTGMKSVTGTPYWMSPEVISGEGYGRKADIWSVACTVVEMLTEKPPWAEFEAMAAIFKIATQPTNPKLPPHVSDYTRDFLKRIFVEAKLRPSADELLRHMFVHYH

[7] = target: Ribosomal protein S6 kinase alpha-4 (Homo sapiens) (UniProt O75676); assay: Selectivity interaction (KinomeScan (DiscoverX)) EUB0000092b RPS6KA4; settings: at 10 µM
[8] = target: STE20/SPS1-related proline-alanine-rich protein kinase (Homo sapiens) (UniProt Q9UEW8); assay: Selectivity interaction (KinomeScan (DiscoverX)) EUB0000655a STK39; settings: at 10 µM
[9] = target: Proto-oncogene tyrosine-protein kinase receptor Ret (Homo sapiens, UniProt P07949); assay: (§2) Selectivity interaction (SelectScreen profiling (Invitrogen)) EUB0000607a RET; settings: at 2 µM
[10] = system: Proto-oncogene tyrosine-protein kinase receptor Ret (Homo sapiens), P07949 [V804L]; assay: as §2; settings: at 2 µM
[11] = system: Proto-oncogene tyrosine-protein kinase receptor Ret (Homo sapiens), P07949 [Y791F]; assay: as §2; settings: at 2 µM
[12] = target: Serine/threonine-protein kinase MRCK beta (Homo sapiens) (UniProt Q9Y5S2); assay: Selectivity interaction (KinomeScan (DiscoverX)) EUB0000607a CDC42BPB; settings: at 10 µM
[13] = target: Receptor-type tyrosine-protein kinase FLT3 (Homo sapiens) (UniProt P36888); assay: Selectivity interaction (SelectScreen profiling (Invitrogen)) EUB0000607a FLT3; settings: at 2 µM
[14] = target: Homeodomain-interacting protein kinase 3 (Homo sapiens, UniProt Q9H422); assay: Selectivity interaction (KinomeScan (DiscoverX)) EUB0000607a HIPK3; settings: at 10 µM
[15] = target: T2, Phosphatidylinositol 5-phosphate 4-kinase type-2 beta (Homo sapiens) (UniProt P78356); assay: Selectivity interaction (KinomeScan (DiscoverX)) EUB0000607a PIP4K2B; settings: at 10 µM
T2 sequence (whole entry): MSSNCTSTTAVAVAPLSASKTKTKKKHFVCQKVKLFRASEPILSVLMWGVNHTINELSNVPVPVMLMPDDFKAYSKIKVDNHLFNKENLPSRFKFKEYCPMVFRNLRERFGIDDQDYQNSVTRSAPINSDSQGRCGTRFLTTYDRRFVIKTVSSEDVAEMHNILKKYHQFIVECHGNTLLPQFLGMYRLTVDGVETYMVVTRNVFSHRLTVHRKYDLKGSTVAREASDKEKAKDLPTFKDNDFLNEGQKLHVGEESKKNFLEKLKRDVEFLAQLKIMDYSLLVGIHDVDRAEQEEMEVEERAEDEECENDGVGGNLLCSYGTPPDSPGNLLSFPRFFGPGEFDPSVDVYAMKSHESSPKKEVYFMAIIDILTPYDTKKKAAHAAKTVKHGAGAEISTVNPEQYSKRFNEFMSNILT

[16] = target: Receptor tyrosine-protein kinase erbB-3 (Homo sapiens) (UniProt P21860); assay: Selectivity interaction (KinomeScan (DiscoverX)) EUB0000666a ERBB3; settings: at 10 µM
Chain of Receptor tyrosine-protein kinase erbB-3 (Homo sapiens) (P21860 whole entry): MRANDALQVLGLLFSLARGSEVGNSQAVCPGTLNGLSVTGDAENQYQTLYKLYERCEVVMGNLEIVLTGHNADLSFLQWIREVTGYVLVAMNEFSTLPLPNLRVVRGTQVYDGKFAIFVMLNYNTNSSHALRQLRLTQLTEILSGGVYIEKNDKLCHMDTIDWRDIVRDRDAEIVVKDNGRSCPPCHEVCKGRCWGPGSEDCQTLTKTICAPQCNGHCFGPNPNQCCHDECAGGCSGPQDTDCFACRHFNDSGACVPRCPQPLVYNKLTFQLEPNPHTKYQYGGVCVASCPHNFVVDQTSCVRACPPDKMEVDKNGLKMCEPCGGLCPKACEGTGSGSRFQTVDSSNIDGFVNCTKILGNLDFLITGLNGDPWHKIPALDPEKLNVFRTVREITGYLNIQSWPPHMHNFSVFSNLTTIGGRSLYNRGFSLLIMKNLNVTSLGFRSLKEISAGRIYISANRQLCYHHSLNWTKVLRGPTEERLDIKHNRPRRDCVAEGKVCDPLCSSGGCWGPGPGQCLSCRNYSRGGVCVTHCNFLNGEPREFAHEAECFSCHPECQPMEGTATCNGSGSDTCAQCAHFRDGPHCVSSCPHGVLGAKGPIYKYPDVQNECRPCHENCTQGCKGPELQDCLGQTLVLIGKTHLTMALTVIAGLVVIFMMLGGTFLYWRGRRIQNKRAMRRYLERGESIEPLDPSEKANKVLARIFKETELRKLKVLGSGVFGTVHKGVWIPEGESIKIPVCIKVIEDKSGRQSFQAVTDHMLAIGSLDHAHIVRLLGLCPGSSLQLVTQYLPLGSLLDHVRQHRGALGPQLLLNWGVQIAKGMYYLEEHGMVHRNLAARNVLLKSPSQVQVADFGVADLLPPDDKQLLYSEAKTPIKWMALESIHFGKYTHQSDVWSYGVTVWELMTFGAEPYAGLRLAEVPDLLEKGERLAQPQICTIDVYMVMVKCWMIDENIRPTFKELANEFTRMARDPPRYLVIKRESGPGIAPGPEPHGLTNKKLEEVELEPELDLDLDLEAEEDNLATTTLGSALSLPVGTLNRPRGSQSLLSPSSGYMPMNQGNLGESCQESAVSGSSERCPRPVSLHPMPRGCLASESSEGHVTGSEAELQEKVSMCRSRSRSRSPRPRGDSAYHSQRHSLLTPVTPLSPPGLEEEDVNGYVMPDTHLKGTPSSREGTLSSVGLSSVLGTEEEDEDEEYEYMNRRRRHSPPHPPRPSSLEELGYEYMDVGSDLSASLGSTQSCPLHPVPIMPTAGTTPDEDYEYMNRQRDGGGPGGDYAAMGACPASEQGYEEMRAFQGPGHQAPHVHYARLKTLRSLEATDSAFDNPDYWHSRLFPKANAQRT

Chain of Homeodomain-interacting protein kinase 3 (Q9H422 whole entry, looked up): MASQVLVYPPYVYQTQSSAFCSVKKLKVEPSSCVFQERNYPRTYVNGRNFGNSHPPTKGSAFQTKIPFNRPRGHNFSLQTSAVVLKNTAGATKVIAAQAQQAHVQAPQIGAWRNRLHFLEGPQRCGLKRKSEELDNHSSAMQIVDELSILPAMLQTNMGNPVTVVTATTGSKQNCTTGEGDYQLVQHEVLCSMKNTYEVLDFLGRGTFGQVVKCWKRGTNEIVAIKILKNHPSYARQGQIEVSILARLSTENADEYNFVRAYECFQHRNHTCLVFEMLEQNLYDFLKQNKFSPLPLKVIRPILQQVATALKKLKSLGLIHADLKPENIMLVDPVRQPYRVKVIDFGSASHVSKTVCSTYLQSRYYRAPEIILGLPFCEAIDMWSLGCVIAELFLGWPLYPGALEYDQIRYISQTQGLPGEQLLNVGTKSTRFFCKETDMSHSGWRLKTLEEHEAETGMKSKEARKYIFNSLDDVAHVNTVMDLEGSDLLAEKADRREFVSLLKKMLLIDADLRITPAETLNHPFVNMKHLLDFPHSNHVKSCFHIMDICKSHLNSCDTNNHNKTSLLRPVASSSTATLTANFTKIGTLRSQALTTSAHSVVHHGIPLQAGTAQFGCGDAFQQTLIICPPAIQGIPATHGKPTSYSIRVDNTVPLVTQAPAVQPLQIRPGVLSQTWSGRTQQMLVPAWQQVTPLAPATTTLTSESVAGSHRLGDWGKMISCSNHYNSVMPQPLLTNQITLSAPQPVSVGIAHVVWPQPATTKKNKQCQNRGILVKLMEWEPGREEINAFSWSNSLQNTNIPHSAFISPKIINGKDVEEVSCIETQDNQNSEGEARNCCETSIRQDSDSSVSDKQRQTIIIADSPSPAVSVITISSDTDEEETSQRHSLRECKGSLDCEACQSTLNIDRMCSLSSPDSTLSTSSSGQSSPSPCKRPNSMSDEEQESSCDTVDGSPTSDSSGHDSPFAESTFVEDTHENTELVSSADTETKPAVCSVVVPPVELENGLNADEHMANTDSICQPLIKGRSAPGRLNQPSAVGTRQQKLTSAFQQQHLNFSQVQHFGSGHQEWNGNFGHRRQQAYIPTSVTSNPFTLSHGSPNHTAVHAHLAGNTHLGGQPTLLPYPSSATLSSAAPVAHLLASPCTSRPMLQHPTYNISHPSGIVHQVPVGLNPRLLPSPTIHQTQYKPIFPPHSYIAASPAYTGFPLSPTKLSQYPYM
Chain of Proto-oncogene tyrosine-protein kinase receptor Ret (P07949 whole entry): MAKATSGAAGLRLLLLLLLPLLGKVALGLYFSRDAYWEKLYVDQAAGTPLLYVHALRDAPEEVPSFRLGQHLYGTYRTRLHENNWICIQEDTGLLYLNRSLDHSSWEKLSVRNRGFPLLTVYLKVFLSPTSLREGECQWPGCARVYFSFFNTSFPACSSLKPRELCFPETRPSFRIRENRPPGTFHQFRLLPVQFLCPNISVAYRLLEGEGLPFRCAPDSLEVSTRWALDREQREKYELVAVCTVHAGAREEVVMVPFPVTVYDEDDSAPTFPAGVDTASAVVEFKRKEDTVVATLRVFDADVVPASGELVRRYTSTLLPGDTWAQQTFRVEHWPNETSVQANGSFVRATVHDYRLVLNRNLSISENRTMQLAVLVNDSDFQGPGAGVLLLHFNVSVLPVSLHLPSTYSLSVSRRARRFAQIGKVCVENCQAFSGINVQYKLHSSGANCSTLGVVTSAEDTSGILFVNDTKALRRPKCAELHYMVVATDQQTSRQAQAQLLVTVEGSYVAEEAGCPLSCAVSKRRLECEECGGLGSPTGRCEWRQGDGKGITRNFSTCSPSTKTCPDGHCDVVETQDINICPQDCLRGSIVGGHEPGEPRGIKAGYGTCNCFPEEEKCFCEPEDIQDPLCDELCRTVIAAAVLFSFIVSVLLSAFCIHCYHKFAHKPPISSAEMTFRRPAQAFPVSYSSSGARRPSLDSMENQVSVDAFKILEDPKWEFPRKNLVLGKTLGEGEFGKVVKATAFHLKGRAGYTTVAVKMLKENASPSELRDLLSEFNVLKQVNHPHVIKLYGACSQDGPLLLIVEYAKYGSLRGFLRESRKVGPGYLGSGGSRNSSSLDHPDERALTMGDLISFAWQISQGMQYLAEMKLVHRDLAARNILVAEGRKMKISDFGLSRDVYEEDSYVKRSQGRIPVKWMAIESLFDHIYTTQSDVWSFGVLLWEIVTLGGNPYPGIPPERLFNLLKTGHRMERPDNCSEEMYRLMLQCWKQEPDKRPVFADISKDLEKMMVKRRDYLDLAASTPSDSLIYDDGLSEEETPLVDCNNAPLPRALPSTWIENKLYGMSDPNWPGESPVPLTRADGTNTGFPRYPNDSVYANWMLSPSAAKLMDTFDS
Chain of Proto-oncogene tyrosine-protein kinase receptor Ret (Homo sapiens), P07949 [V804L] (P07949 whole entry V804L): as the sequence (P07949 whole entry) above, with V804L counted along it
Chain of Ribosomal protein S6 kinase alpha-4 (Homo sapiens) (O75676 whole entry, looked up): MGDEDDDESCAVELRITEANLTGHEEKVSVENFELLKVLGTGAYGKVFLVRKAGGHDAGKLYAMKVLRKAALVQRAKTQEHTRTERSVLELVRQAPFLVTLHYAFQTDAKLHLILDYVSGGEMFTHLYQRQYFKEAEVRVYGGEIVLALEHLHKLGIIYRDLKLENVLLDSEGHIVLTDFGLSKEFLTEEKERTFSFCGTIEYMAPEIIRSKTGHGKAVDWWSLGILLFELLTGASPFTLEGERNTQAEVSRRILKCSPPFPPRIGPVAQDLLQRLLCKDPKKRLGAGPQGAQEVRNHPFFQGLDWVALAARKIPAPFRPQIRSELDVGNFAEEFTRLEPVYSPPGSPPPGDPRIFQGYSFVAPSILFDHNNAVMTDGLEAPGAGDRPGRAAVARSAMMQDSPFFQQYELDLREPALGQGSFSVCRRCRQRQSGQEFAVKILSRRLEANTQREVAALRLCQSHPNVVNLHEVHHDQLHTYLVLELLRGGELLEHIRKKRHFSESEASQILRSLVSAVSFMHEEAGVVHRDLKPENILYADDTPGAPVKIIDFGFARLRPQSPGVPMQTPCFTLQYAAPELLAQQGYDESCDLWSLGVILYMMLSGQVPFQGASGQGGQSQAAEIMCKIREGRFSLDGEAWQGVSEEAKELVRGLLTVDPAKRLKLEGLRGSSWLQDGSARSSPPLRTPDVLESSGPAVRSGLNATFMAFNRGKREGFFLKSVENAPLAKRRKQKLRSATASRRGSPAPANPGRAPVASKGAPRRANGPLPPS
Chain of Beta-1 adrenergic receptor (P08588 whole entry): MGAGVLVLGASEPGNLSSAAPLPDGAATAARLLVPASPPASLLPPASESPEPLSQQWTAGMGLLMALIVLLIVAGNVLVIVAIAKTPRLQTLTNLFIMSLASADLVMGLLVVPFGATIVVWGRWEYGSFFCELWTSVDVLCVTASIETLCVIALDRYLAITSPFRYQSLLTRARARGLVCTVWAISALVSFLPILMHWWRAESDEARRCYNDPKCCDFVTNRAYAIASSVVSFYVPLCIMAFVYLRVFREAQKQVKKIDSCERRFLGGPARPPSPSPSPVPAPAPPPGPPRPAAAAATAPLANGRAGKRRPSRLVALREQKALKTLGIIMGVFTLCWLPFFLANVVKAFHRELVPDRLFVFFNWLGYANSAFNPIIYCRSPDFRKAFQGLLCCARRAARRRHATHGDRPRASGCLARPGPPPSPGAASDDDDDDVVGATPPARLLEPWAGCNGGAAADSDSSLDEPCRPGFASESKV
Chain of Proto-oncogene tyrosine-protein kinase receptor Ret (Homo sapiens), P07949 [Y791F] (P07949 whole entry Y791F): as the sequence (P07949 whole entry) above, with Y791F counted along it

Cc1cc([C@@H](C)Nc2ccccc2C(=O)O)c2nc(N3CCOCC3)cc(=O)n2c1 [AZD-6482]
% of control [1]: 95%

CCC(=O)N1CC[C@H](Nc2ncnc3c2CN(c2cnc(OC)c(C(F)(F)F)c2)CC3)C1 [LENIOLISIB]
pIC50 [2]: < 4.52

Cn1cc(-n2cnc3c(NCc4nc5cc(Cl)c(Cl)cc5[nH]4)nc(N4CCOCC4)nc32)cn1
% of inhibition [3]: -63.9%
% of inhibition [4]: -24.4%

COc1cc(N(C)c2ccnc3ccc(C(F)(F)F)cc23)cc(OC)c1OC
% binding [5]: 85%

Nc1cnc(N2CCc3cc(S(=O)(=O)Nc4c(F)cc(Cl)cc4F)cc(N4CCCC4=O)c32)nc1 [TP-020n]
% of control [6]: 100%

CCC(=O)N1CCN(c2ccc(-n3c(=O)ccc4cnc5ccc(-c6cnc7ccccc7c6)cc5c43)cc2C(F)(F)F)CC1
% of control [7]: 100%

CN(C)CCOc1ccc(-c2nc(-c3ccncc3)c(-c3ccc4c(c3)CC/C4=N\O)[nH]2)cc1
% of control [8]: 100%

CNC(=O)Nc1ccc(-c2nc(N3CC4CCC(C3)O4)c3cnn(C4CCC5(CC4)OCCO5)c3n2)cc1
% of inhibition [9]: 4%
% of inhibition [10]: 2%
% of inhibition [11]: 2%
% of control [12]: 100%
% of inhibition [13]: 17%
% of control [14]: 42%
% of control [15]: 100%

O=C(NOC[C@H](O)CO)c1ccc(F)c(F)c1Nc1ccc(I)cc1F
% of control [16]: 100%
